Source: patent US20100021918A1, “METHOD FOR ASSAYING ACTION OF ANTITUMOR AGENT USING SPLICING DEFECTS AS INDEX” (Eisai R&D Management Co., Ltd., priority 2007, published 2010)

Test system: p27/Kip1
Assay: Western blotting of abnormal protein from pre-mRNA, p27/Kip1
Assay type: cell-based, human
Conditions: HeLa cells, about 100 nM, 24 hours; untreated: only a 27 kDa band (FIG. 4)
Description: Consequently the protein may serves as a protein marker to monitor the action of (8E,12E,14E)-7-((4-cycloheptylpiperazin-1-yl)carbonyl)oxy-3,6,16,21-tetrahydroxy-6,10,12,16,20-pentamethyl-18,19-epoxytricosa-8,12,14-trien-11-olide. Whether the pre-mRNA-dependent abnormal protein practically emerged upon the treatment of (8E,12E,14E)-7-((4-cycloheptylpiperazin-1-yl)carbonyl)oxy-3,6,16,21-tetrahydroxy-6,10,12,16,20-pentamethyl-18,19-epoxytricosa-8,12,14-trien-11-olide was examined by using cancer cells (HaLa). […] Based on these findings, the protein generated from pre-mRNA can serve as the marker as well.
About 3×10^5 cells of HeLa cells were first seeded in a 24-well culture plate (bottom area: 2 cm^2), and 18 hours later, the compound was added thereto at the indicated concentration, followed by additional 24-hour culturing. The cells were washed once with PBS(−), and then were lysed by treating with 0.2 ml of M-PER reagent (PIERCE) for 30 minutes. The collected lysate was filtered with a 0.45 μm filter to remove insoluble matters and then combined with an equal amount of 2×SDS-PAGE sample solution. The mixture was heated to be denatured at 95° C. for five minutes to yield a sample to be analyzed.
The analysis sample (15 μl each) was separated with 5-20% SDS-PAGE and transferred onto a PVDF membrane (Hybond-P: GE-Amersham). […]

CCC(O)C(C)C1OC1CC(C)(O)/C=C/C=C(\C)C1OC(=O)CC(O)CCC(C)(O)C(OC(=O)N2CCN(C3CCCCCC3)CC2)/C=C/C1C (stereo not shown) [E7107, (8E,12E,14E)-7-((4-cycloheptylpiperazin-1-yl)carbonyl)oxy-3,6,16,21-tetrahydroxy-6,10,12,16,20-pentamethyl-18,19-epoxytricosa-8,12,14-trien-11-olide]
p27/Kip1 bands in Western blot: appearance of a band with about 22 kDa was confirmed
